Activity calls are given as the source filed them. The rule behind the calls is not given here.
Legend:
[1] = tested on: Brassica rapa subsp. oleifera; assay: Post-emergence herbicidal activity against one-leaf stage Brassica rapa subsp. oleifera under greenhouse condition assessed as complete bleaching of leaves at 600 g /ha measured after 24 days by spray method; format: functional, organism-based
[2] = tested on: Brassica rapa subsp. oleifera; assay: Post-emergence herbicidal activity against one-leaf stage Brassica rapa subsp. oleifera under greenhouse condition at 75 g /ha measured after 24 days by spray method; format: functional; details: 576 h, read-out: GI
[3] = tested on: Brassica rapa subsp. oleifera; assay: Post-emergence herbicidal activity against one-leaf stage Brassica rapa subsp. oleifera under greenhouse condition at 150 g /ha measured after 24 days by spray method; format: functional; details: 576 h, read-out: GI
[4] = tested on: Brassica rapa subsp. oleifera; assay: Post-emergence herbicidal activity against one-leaf stage Brassica rapa subsp. oleifera under greenhouse condition at 300 g /ha measured after 24 days by spray method; format: functional; details: 576 h, read-out: GI
[5] = tested on: Brassica rapa subsp. oleifera; assay: Post-emergence herbicidal activity against one-leaf stage Brassica rapa subsp. oleifera under greenhouse condition at 600 g /ha measured after 24 days by spray method; format: functional; details: 576 h, read-out: GI
Digitaria [6] = assay: Post-emergence herbicidal activity against one-leaf stage of Digitaria adscendens under greenhouse condition at 750 g /ha measured after 24 days by spray method; format: functional; details: in Digitaria adscendens, 576 h, read-out: GI
Echinochloa crus-galli [7] = assay: Post-emergence herbicidal activity against one-leaf stage of Echinochloa crus-galli (barnyard grass) under greenhouse condition at 750 g /ha measured after 24 days by spray method; format: functional; details: 576 h, read-out: GI
Amaranthus retroflexus [8] = assay: Post-emergence herbicidal activity against one-leaf stage of Amaranthus retroflexus under greenhouse condition at 750 g /ha measured after 24 days by spray method; format: functional; details: 576 h, read-out: GI
[9] = tested on: Brassica rapa subsp. oleifera; assay: Post-emergence herbicidal activity against one-leaf stage Brassica rapa subsp. oleifera under greenhouse condition at 750 g /ha measured after 24 days by spray method; format: functional; details: 576 h, read-out: GI
Digitaria [10] = assay: Pre-emergence herbicidal activity against Digitaria adscendens under greenhouse condition at 750 g /ha measured after 24 days by spray method; format: functional; details: in Digitaria adscendens, 576 h, read-out: GI
Echinochloa crus-galli [11] = assay: Pre-emergence herbicidal activity against Echinochloa crus-galli (barnyard grass) under greenhouse condition at 750 g /ha measured after 24 days by spray method; format: functional; details: 576 h, read-out: GI
Amaranthus retroflexus [12] = assay: Pre-emergence herbicidal activity against Amaranthus retroflexus under greenhouse condition at 750 g /ha measured after 24 days by spray method; format: functional; details: 576 h, read-out: GI
[13] = tested on: Brassica rapa subsp. oleifera; assay: Pre-emergence herbicidal activity against Brassica rapa subsp. oleifera under greenhouse condition at 750 g /ha measured after 24 days by spray method; format: functional; details: 576 h, read-out: GI
Spirodela polyrhiza [14] = assay: Bleaching herbicidal activity in Spirodela polyrhiza fronds cultured in compound-containing in medium assessed as chlorophyll inhibition at 1 ug/ml after 7 days; format: functional; details: 168 h
Spirodela polyrhiza [15] = assay: Bleaching herbicidal activity in Spirodela polyrhiza fronds cultured in compound-containing in medium assessed as chlorophyll inhibition at 10 ug/ml after 7 days; format: functional; details: 168 h
Amaranthus retroflexus [16] = assay: Post-emergence herbicidal activity against one-leaf stage Amaranthus retroflexus under greenhouse condition assessed as complete bleaching of leaves at 150 g /ha measured after 24 days by spray method; format: functional, organism-based
Amaranthus retroflexus [17] = assay: Post-emergence herbicidal activity against one-leaf stage Amaranthus retroflexus under greenhouse condition assessed as complete bleaching of leaves at 300 g /ha measured after 24 days by spray method; format: functional, organism-based
Amaranthus retroflexus [18] = assay: Post-emergence herbicidal activity against one-leaf stage Amaranthus retroflexus under greenhouse condition assessed as complete bleaching of leaves at 600 g /ha measured after 24 days by spray method; format: functional, organism-based
[19] = tested on: Brassica rapa subsp. oleifera; assay: Post-emergence herbicidal activity against one-leaf stage Brassica rapa subsp. oleifera under greenhouse condition assessed as complete bleaching of leaves at 75 g /ha measured after 24 days by spray method; format: functional, organism-based
[20] = tested on: Brassica rapa subsp. oleifera; assay: Post-emergence herbicidal activity against one-leaf stage Brassica rapa subsp. oleifera under greenhouse condition assessed as complete bleaching of leaves at 150 g /ha measured after 24 days by spray method; format: functional, organism-based
[21] = tested on: Brassica rapa subsp. oleifera; assay: Post-emergence herbicidal activity against one-leaf stage Brassica rapa subsp. oleifera under greenhouse condition assessed as complete bleaching of leaves at 300 g /ha measured after 24 days by spray method; format: functional, organism-based
Amaranthus retroflexus [22] = assay: Post-emergence herbicidal activity against one-leaf stage Amaranthus retroflexus under greenhouse condition at 75 g /ha measured after 24 days by spray method; format: functional; details: 576 h, read-out: GI
Amaranthus retroflexus [23] = assay: Post-emergence herbicidal activity against one-leaf stage Amaranthus retroflexus under greenhouse condition at 150 g /ha measured after 24 days by spray method; format: functional; details: 576 h, read-out: GI
Amaranthus retroflexus [24] = assay: Post-emergence herbicidal activity against one-leaf stage Amaranthus retroflexus under greenhouse condition at 300 g /ha measured after 24 days by spray method; format: functional; details: 576 h, read-out: GI
Amaranthus retroflexus [25] = assay: Post-emergence herbicidal activity against one-leaf stage Amaranthus retroflexus under greenhouse condition at 600 g /ha measured after 24 days by spray method; format: functional; details: 576 h, read-out: GI
Amaranthus retroflexus [26] = assay: Post-emergence herbicidal activity against one-leaf stage Amaranthus retroflexus under greenhouse condition assessed as complete bleaching of leaves at 75 g /ha measured after 24 days by spray method; format: functional, organism-based

Row | Compound | Activity [1] | inhibition of growth at 75 g/ha [2] [%] | inhibition of growth at 150 g/ha [3] [%] | inhibition of growth at 300 g/ha [4] [%] | inhibition of growth at 600 g/ha [5] [%] | inhibition of growth at 750 g/ha (Digitaria [6]) [%] | inhibition of growth at 750 g/ha (Echinochloa crus-galli [7]) [%] | inhibition of growth at 750 g/ha (Amaranthus retroflexus [8]) [%] | inhibition of growth at 750 g/ha [9] [%] | inhibition of growth at 750 g/ha (Digitaria [10]) [%] | inhibition of growth at 750 g/ha (Echinochloa crus-galli [11]) [%] | inhibition of growth at 750 g/ha (Amaranthus retroflexus [12]) [%] | inhibition of growth at 750 g/ha [13] [%] | inhibition at 1 µg/mL (Spirodela polyrhiza [14]) [%] | inhibition at 10 µg/mL (Spirodela polyrhiza [15]) [%] | Activity (Amaranthus retroflexus [16]) | Activity (Amaranthus retroflexus [17]) | Activity (Amaranthus retroflexus [18]) | Activity [19] | Activity [20] | further results
1 | Cc1cc(-c2cccc(C(F)(F)F)c2)c(Oc2ccc(Cl)cc2)nn1 | Active | 65 | 71 | 76 | 80 | 79 | 78 | 94 | 98 | 97 | 85 | 100 | 97 | 72 | 99 | Active | Active | Active | Active | Active | Activity [21]: Active; inhibition of growth at 75 g/ha (Amaranthus retroflexus [22]): 45%; inhibition of growth at 150 g/ha (Amaranthus retroflexus [23]): 84%; inhibition of growth at 300 g/ha (Amaranthus retroflexus [24]): 86%; inhibition of growth at 600 g/ha (Amaranthus retroflexus [25]): 90%; Activity (Amaranthus retroflexus [26]): Active
2 | O=C(Nc1ccc(F)cc1F)c1cccnc1Oc1cccc(C(F)(F)F)c1 [DIFLUFENICAN] | Active | 44 | 88 | 94 | 98 | 83 | 67 | 100 | 98 | 100 | 94 | 90 | 71 | 90 | 94 | Active | Active | Active | Active | Active | Activity [21]: Active; inhibition of growth at 75 g/ha (Amaranthus retroflexus [22]): 41%; inhibition of growth at 150 g/ha (Amaranthus retroflexus [23]): 70%; inhibition of growth at 300 g/ha (Amaranthus retroflexus [24]): 74%; inhibition of growth at 600 g/ha (Amaranthus retroflexus [25]): 100%; Activity (Amaranthus retroflexus [26]): Active
3 | Cc1cc(-c2cccc(C(F)(F)F)c2)c(Oc2cc(F)cc(F)c2)nn1 | Active | 55 | 65 | 78 | 82 | 48 | 57 | 100 | 80 | 100 | 51 | 96 | 65 | 80 | 84 | Active | Active | Active | Active | Active | Activity [21]: Active; inhibition of growth at 75 g/ha (Amaranthus retroflexus [22]): 31%; inhibition of growth at 150 g/ha (Amaranthus retroflexus [23]): 96%; inhibition of growth at 300 g/ha (Amaranthus retroflexus [24]): 98%; inhibition of growth at 600 g/ha (Amaranthus retroflexus [25]): 100%
4 | Cc1cc(-c2cccc(C(F)(F)F)c2)c(Oc2ccc(F)cc2)nn1 | Active | 53 | 61 | 70 | 83 | 68 | 35 | 96 | 95 | 96 | 84 | 100 | 98 | 75 | 91 | Active | Active | Active | Active | Active | Activity [21]: Active; inhibition of growth at 75 g/ha (Amaranthus retroflexus [22]): 64%; inhibition of growth at 150 g/ha (Amaranthus retroflexus [23]): 79%; inhibition of growth at 300 g/ha (Amaranthus retroflexus [24]): 90%; inhibition of growth at 600 g/ha (Amaranthus retroflexus [25]): 100%; Activity (Amaranthus retroflexus [26]): Active
5 | Cc1cc(-c2cccc(C(F)(F)F)c2)c(Oc2ccccc2)nn1 | Active | 38 | 53 | 56 | 75 | 88 | 26 | 75 | 99 | 87 | 0 | 0 | 0 | 68 | 75 | Active | Active | Active | Active | Active | Activity [21]: Active; inhibition of growth at 75 g/ha (Amaranthus retroflexus [22]): 22%; inhibition of growth at 150 g/ha (Amaranthus retroflexus [23]): 36%; inhibition of growth at 300 g/ha (Amaranthus retroflexus [24]): 64%; inhibition of growth at 600 g/ha (Amaranthus retroflexus [25]): 96%
6 | Cc1ccc(Oc2nnc(C)cc2-c2cccc(C(F)(F)F)c2)cc1 | Active | 56 | 67 | 89 | 97 | 30 | 47 | 84 | 100 | 44 | 0 | 0 | 13 | 82 | 94 | Active | Active | Active | Active | Active | Activity [21]: Active; inhibition of growth at 75 g/ha (Amaranthus retroflexus [22]): 5%; inhibition of growth at 150 g/ha (Amaranthus retroflexus [23]): 47%; inhibition of growth at 300 g/ha (Amaranthus retroflexus [24]): 58%; inhibition of growth at 600 g/ha (Amaranthus retroflexus [25]): 76%
7 | Cc1cc(-c2cccc(C(F)(F)F)c2)c(Oc2cccc(Br)c2)nn1 | Active | 42 | 67 | 76 | 91 | 40 | 40 | 94 | 100 | 33 | 14 | 0 | 0 | 70 | 79 | Active | Active | Active | Active | Active | Activity [21]: Active; inhibition of growth at 75 g/ha (Amaranthus retroflexus [22]): 38%; inhibition of growth at 150 g/ha (Amaranthus retroflexus [23]): 45%; inhibition of growth at 300 g/ha (Amaranthus retroflexus [24]): 70%; inhibition of growth at 600 g/ha (Amaranthus retroflexus [25]): 73%; Activity (Amaranthus retroflexus [26]): Active
